Measured values published in PMC11239673, “Structural basis for the bi-specificity of USP25 and USP28 inhibitors” (EMBO Reports, 2024).
Values joined by “and” are separate entries in the source; they are usually repeats but may differ in a detail not shown here. Equal values may be shown once. Read-outs that look alike come from different tables or passages of the source.

What was measured:
USP28Δtip Q315A = target: T1, USP28Δtip Q315A (Homo sapiens, UniProt Q96RU2, INS458SGSG/Q315A); assay: Ub-Rho110 dose–response assay, USP28Δtip Q315A; format: biochemical; conditions: for IC50: USP28 - Q315A
T1 sequence (Q96RU2 with tags, fused parts or gaps Q315A/INS458SGSG): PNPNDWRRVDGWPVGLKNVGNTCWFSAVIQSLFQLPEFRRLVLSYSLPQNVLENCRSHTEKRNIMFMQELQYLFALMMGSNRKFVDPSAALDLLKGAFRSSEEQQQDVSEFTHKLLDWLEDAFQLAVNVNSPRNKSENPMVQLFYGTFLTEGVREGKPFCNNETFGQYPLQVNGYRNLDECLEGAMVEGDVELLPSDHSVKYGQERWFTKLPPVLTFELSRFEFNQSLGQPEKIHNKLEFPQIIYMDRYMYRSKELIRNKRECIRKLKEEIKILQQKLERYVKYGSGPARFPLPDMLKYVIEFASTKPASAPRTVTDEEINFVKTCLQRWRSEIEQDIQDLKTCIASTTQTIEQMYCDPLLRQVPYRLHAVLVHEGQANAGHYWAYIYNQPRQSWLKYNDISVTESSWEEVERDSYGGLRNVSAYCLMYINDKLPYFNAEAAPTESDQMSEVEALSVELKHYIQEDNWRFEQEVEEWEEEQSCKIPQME

USP28Δtip D265S = target: T2, USP28Δtip D265S (Homo sapiens, UniProt Q96RU2, D265S/INS458SGSG); assay: Ub-Rho110 dose–response assay, USP28Δtip D265S; format: biochemical; conditions: for IC50: USP28 - D265S
T2 sequence (Q96RU2 with tags, fused parts or gaps D265S/INS458SGSG): T1 sequence (Q96RU2 with tags, fused parts or gaps Q315A/INS458SGSG)

USP25fl = target: T3, USP25fl (Homo sapiens, UniProt Q9UHP3); assay: SEC-MALS analysis of the oligomeric state of USP25fl after inhibitor incubation; conditions: for MW [kDa]: SEC-MALS molar mass of USP25-fl
T3 sequence (Q9UHP3 1-1055): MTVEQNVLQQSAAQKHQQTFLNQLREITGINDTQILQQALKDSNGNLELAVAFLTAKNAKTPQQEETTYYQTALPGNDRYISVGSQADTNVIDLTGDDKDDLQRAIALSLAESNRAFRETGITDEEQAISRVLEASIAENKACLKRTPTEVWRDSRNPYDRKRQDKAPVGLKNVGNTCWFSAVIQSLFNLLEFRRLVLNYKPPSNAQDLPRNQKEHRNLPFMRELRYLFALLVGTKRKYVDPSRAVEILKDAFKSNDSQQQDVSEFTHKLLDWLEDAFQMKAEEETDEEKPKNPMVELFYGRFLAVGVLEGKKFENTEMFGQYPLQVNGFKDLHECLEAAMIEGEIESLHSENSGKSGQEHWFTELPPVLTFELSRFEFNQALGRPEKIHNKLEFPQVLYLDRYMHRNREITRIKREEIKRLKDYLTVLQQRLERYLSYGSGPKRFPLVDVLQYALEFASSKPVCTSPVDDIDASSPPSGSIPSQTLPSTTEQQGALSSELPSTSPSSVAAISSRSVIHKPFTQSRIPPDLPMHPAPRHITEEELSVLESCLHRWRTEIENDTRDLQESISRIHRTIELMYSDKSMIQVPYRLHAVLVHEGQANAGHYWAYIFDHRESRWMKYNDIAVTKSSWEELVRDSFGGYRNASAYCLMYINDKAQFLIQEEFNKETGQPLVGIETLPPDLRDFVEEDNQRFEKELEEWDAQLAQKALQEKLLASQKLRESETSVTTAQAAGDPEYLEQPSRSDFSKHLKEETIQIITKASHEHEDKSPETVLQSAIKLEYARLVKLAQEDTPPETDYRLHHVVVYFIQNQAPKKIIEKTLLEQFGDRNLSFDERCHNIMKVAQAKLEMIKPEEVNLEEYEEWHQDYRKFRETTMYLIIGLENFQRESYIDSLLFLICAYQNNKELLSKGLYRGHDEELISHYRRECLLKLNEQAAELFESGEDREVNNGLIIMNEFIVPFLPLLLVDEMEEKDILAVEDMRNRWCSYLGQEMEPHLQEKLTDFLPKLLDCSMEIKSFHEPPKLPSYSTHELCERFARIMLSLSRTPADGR

USP28Δtip E366Q = target: T4, USP28Δtip E366Q (Homo sapiens, UniProt Q96RU2, E366Q/INS458SGSG); assay: Ub-Rho110 dose–response assay, USP28Δtip E366Q; format: biochemical; conditions: for IC50: USP28 - E366Q
T4 sequence (Q96RU2 with tags, fused parts or gaps E366Q/INS458SGSG): T1 sequence (Q96RU2 with tags, fused parts or gaps Q315A/INS458SGSG)

[1] = mean of replicates, read-out: IC50, mean and SD
[2] = single replicates, read-out: IC50 of each replicate curve (unlabelled line above mean and SD)
[3] = read-out: relative inhibition [%] - USP28 - Q315A
[4] = read-out: relative inhibition [%] - USP28 - D265S
[5] = 20 µM USP25, 60 µM inhibitor, mean of experiments
[6] = 20 µM USP25, 60 µM inhibitor, single experiments
[7] = read-out: relative inhibition [%] - USP28 - E366Q

SMILES: Cc1ccc2c(N)c(C(=O)NC3CCc4cc(N5CC6CCC(C5)N6)ccc4C3)sc2n1 (stereo not drawn) [FT206]
- t-test vs. USP28 WT control - Q315A (USP28Δtip Q315A): 6.868E-03
- IC50 (USP28Δtip Q315A; [1]): 360 nM
- IC50 (USP28Δtip Q315A; [2]): 492 nM and 375 nM and 444 nM and 267 nM and 246 nM
- inhibition at 11.11 µM (USP28Δtip Q315A; [3]): 96.4%
- inhibition at 33.33 µM (USP28Δtip Q315A; [3]): 97.8%
- inhibition at 100 µM (USP28Δtip Q315A; [3]): 98.7%
- inhibition at […] (USP28Δtip Q315A; [3]): 92.1% and 78.6% and 44.2%
- t-test vs. USP28 WT control - D265S (USP28Δtip D265S): 4.502E-03
- IC50 (USP28Δtip D265S; [1]): 310 nM
- IC50 (USP28Δtip D265S; [2]): 288 nM and 267 nM and 284 nM and 266 nM and 437 nM
- inhibition at 11.11 µM (USP28Δtip D265S; [4]): 99.7%
- inhibition at 33.33 µM (USP28Δtip D265S; [4]): 100%
- inhibition at 100 µM (USP28Δtip D265S; [4]): 101%
- inhibition at […] (USP28Δtip D265S; [4]): 97.8% and 94.4% and 33.5% and 30.9%
- avg. Mol mass (10.5-14.5 ml), mean (USP25fl; 20 µM USP25, 60 µM inhibitor, mean of 4 experiments): 298.950
- dimer (fraction), mean (USP25fl; [5]): 0.777
- tetramer (fraction), mean (USP25fl; [5]): 0.223
- avg. Mol mass (10.5-14.5 ml) (USP25fl; [6]): 298.000 and 299.300 and 295.500 and 303.000
- dimer (fraction) (USP25fl; [6]): 0.781 and 0.775 and 0.791 and 0.760
- tetramer (fraction) (USP25fl; [6]): 0.219 and 0.225 and 0.209 and 0.240
- % dimer (USP25fl; 20 µM USP25fl, 60 µM inhibitor, 45 min, average of ≥3 experiments ± SD, DMSO control 26.2 ± 1.5): 77.7 ± 1.1%
- % tetramer (USP25fl; 20 µM USP25fl, 60 µM inhibitor, 45 min, average of ≥3 experiments ± SD, DMSO control 73.8 ± 1.5): 22.3 ± 1.1%
- Ø Mw (USP25fl; 20 µM USP25fl, 60 µM inhibitor, 45 min, average of ≥3 experiments ± SD, DMSO control 424.7 ± 3.8): 299.0 ± 2.7 kDa
- MW [kDa] (USP25fl; 10 µM USP25-fl + 5 µM inhibitor, elution volume V [mL] in the cell to the left): 638.16 kDa and 634.82 kDa and 630.15 kDa and 628.44 kDa
- MW [kDa] (USP25fl; 10 µM USP25-fl + 10 µM inhibitor, elution volume V [mL] in the cell to the left): 647.07 kDa and 645.88 kDa and 640.88 kDa and 638.88 kDa
- MW [kDa] (USP25fl; 10 µM USP25-fl + 20 µM inhibitor, elution volume V [mL] in the cell to the left): 747.51 kDa and 739.67 kDa and 732.41 kDa and 732.02 kDa
- dRI (USP25fl; SEC-MALS trace, 10 µM USP25-fl + 20 µM inhibitor, elution volume V [mL] in the cell to the left): 3.84E-07 and 3.46E-07 and 3.10E-07 and 2.78E-07
- t-test vs. USP28 WT control - E366Q (USP28Δtip E366Q): 3.570E-04
- IC50 (USP28Δtip E366Q; [1]): 17200 nM
- IC50 (USP28Δtip E366Q; [2]): 21300 nM and 17600 nM and 14700 nM and 24400 nM and 11500 nM and 13700 nM
- inhibition at 11.11 µM (USP28Δtip E366Q; [7]): 34.7%
- inhibition at 33.33 µM (USP28Δtip E366Q; [7]): 57.1%
- inhibition at 100 µM (USP28Δtip E366Q; [7]): 78.7%
